Common to all, as to experiment: Kinase profiling
Common to all, as to assay type: biochemical

The target of one assay is T1, ASK1 (Homo sapiens, UniProt Q99683).
T1 construct: purchased ProQinase (Freiburg, Germany)
T1 sequence (Q99683 1-1374): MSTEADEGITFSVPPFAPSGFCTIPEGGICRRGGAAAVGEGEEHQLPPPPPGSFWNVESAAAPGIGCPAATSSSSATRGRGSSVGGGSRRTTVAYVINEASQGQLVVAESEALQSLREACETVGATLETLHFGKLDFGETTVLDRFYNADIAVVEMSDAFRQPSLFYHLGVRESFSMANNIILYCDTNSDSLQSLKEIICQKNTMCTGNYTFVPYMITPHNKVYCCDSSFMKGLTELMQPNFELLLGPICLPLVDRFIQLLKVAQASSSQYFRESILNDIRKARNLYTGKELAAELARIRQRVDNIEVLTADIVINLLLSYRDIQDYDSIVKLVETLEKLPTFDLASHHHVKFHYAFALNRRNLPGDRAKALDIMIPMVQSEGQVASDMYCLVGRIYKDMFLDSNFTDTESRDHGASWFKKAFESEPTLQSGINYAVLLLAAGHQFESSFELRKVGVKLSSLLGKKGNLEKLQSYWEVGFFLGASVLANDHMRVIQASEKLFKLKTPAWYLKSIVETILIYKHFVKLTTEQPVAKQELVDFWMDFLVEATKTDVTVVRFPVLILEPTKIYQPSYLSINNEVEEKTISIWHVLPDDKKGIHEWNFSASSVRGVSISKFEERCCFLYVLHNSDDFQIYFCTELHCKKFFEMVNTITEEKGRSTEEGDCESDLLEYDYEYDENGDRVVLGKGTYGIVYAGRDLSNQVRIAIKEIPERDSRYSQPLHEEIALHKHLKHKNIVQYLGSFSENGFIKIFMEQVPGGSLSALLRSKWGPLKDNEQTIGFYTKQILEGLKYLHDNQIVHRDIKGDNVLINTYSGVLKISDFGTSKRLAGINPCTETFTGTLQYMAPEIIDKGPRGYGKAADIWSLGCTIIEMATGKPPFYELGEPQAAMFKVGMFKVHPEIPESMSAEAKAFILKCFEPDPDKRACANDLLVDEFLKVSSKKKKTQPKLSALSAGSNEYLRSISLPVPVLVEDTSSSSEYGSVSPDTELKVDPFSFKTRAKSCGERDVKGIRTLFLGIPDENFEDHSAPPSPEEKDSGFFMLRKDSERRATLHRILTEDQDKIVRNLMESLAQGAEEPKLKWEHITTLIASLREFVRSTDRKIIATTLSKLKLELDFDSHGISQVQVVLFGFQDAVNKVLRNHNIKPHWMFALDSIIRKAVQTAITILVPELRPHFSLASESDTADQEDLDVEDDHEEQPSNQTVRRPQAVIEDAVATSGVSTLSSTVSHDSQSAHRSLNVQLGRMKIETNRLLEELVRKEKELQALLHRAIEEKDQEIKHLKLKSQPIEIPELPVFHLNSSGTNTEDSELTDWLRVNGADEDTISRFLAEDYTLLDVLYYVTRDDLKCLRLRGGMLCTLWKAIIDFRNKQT
On the procedure:
(§1) The analysis was performed by ProQinase (Freiburg, Germany).

Another assay deals with T2, CDK9/CycK (Homo sapiens, UniProt P50750).
T2 construct: purchased ProQinase (Freiburg, Germany)
On the procedure: as §1

The target of the next assay is T3, CDK6/CycD2 (Homo sapiens, UniProt Q00534).
T3 construct: purchased ProQinase (Freiburg, Germany)
The protocol:
as §1

The next assay has as its target T4, MST1 (Homo sapiens, UniProt Q13043).
T4 construct: purchased ProQinase (Freiburg, Germany)
T4 sequence (Q13043 1-487): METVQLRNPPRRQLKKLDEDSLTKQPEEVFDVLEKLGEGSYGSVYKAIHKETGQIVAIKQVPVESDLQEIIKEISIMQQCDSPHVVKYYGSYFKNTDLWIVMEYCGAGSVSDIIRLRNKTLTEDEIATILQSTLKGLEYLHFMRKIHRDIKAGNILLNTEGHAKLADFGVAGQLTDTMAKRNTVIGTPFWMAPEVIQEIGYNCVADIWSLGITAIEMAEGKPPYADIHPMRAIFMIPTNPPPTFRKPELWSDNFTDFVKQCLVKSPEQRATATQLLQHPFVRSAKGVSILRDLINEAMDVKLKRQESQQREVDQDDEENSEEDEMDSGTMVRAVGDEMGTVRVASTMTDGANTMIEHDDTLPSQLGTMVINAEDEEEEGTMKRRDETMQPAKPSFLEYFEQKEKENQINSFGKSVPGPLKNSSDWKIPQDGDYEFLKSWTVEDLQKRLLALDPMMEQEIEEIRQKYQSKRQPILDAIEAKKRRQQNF
On the procedure: as §1

The target of another assay is T5, MKK4 (Homo sapiens, UniProt P45985).
T5 construct: purchased ProQinase (Freiburg, Germany)
T5 sequence (P45985 1-399): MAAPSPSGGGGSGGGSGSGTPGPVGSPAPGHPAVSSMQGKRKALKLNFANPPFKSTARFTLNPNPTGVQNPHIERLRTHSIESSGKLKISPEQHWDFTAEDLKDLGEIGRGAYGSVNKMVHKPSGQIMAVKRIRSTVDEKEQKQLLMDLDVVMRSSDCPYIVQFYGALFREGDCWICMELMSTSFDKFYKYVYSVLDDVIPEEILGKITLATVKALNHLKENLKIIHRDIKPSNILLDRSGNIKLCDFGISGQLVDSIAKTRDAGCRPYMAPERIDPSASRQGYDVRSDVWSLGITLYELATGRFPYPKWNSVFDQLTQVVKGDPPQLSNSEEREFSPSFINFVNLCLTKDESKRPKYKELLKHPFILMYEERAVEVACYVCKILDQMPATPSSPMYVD
On the procedure:
as §1

For the next assay, the target named is T6, MKK6 SDTD (Homo sapiens, UniProt P52564, S207D/T211D).
T6 construct: purchased ProQinase (Freiburg, Germany)
T6 sequence (P52564 1-334 S207D/T211D): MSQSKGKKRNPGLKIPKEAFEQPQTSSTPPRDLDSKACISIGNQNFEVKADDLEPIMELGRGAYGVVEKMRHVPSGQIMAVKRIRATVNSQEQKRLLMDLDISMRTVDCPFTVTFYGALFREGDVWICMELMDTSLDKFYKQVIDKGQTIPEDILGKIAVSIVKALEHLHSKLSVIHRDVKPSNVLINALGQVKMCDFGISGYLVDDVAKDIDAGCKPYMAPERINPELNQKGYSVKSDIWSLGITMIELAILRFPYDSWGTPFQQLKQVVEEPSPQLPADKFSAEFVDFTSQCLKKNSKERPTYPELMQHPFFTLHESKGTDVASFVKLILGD
The protocol:
as §1

T3 sequence (Q00534 whole entry): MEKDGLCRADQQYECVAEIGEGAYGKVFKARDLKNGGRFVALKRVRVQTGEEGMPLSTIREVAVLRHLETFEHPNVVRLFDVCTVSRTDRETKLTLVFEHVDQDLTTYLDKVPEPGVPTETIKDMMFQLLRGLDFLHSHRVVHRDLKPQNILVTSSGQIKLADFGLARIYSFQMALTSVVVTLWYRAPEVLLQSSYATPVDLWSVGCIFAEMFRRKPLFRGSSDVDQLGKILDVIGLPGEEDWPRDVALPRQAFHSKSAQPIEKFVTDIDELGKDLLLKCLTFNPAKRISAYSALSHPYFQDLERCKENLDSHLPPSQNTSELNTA
T3 sequence (P30279 whole entry partner): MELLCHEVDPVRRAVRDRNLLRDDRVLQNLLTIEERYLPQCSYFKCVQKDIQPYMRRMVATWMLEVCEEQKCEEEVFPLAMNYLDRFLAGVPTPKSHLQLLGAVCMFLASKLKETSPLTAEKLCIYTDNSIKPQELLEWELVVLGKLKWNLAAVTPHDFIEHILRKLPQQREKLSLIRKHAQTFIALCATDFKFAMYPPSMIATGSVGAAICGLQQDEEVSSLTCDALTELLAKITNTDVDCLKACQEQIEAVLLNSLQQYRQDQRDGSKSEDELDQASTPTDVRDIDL
T2 sequence (P50750 whole entry): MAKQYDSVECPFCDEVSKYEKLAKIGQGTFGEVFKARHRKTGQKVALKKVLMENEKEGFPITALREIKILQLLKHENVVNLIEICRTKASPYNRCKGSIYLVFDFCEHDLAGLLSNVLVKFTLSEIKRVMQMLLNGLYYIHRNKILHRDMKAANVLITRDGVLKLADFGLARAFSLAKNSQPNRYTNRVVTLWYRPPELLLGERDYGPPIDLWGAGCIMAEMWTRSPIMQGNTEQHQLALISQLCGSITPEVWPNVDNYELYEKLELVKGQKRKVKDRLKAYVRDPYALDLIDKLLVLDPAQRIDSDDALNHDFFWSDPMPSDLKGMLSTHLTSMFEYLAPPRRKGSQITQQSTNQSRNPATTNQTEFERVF
T2 sequence (O75909 whole entry partner): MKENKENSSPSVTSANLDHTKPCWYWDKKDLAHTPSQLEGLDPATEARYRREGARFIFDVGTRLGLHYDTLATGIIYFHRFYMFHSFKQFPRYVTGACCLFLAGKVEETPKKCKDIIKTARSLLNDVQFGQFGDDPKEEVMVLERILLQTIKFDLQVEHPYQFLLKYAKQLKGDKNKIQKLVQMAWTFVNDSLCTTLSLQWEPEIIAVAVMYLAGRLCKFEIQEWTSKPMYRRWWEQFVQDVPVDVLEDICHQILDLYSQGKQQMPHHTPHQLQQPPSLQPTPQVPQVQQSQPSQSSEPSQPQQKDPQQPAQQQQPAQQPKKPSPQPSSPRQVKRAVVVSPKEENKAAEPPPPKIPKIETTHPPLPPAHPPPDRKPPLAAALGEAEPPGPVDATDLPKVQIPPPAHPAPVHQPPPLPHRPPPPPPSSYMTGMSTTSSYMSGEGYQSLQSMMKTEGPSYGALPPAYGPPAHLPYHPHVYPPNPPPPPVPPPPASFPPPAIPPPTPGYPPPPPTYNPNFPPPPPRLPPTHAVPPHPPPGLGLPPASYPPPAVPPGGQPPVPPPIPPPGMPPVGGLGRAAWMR

With `O=C(Cc1ccccc1)Nc1ccc(F)c(Nc2ccc3c(c2)CCCCC3=O)c1` [Compound 100], the Residual activity on ASK1 (1.0E-05 M) is 85 % of control; on ASK1 (1.0E-06 M), 87 % of control; at CDK9/CycK (1.0E-05 M), 89 % of control; on CDK9/CycK (1.0E-06 M), 91 % of control; at CDK6/CycD2 (1.0E-05 M) it was 97 % of control; on CDK6/CycD2 (1.0E-06 M), 97 % of control. The Residual activity at MST1 (1.0E-05 M) is listed as 92 % of control; on MST1 (1.0E-06 M), 102 % of control; at MKK4 (1.0E-05 M), 110 % of control; at MKK4 (1.0E-06 M), 94 % of control; at MKK6 SDTD (1.0E-05 M), 109 % of control; on MKK6 SDTD (1.0E-06 M), 89 % of control.
As for `O=C(Nc1ccc(F)c(Nc2ccc3c(c2)CCCCC3=O)c1)c1cccc(F)c1` [Compound 109], the Residual activity at ASK1 (1.0E-05 M) was 88 % of control; on ASK1 (1.0E-06 M), 87 % of control; at CDK9/CycK (1.0E-05 M), 95 % of control; on CDK9/CycK (1.0E-06 M) it was 90 % of control; at CDK6/CycD2 (1.0E-05 M) it was 94 % of control; on CDK6/CycD2 (1.0E-06 M), 105 % of control. For the same compound, the Residual activity at MST1 (1.0E-05 M) is on record as 98 % of control; on MST1 (1.0E-06 M) it was 103 % of control; on MKK4 (1.0E-05 M), 111 % of control; at MKK4 (1.0E-06 M), 96 % of control; on MKK6 SDTD (1.0E-05 M), 137 % of control; on MKK6 SDTD (1.0E-06 M), 85 % of control.

The record behind these values is article PMC9030254, “Target Hopping from Protein Kinases to PXR: Identification of Small-Molecule Protein Kinase Inhibitors as Selective Modulators of Pregnane X Receptor from TüKIC Library” (Cells, 2022).
